Laboratory results taken from patent US20150050235A1, “COMPOSITION FOR ATTRACTING MALE BLUEBERRY SPANWORM MOTH” (Her Majesty the Queen in Right of Canada, as represented by …, priority 2013, published 2015).

Columns and labels:
[1] = tested on: male I. argillacearia moths; test: Field experiment no. 1: captures of male moths in baited Delta traps; assay type: in vivo, Itame argillacearia; conditions: 50 μg per constituent, rubber septa in Delta traps, n=10
Description: Field Experiments. Two field experiments were conducted during the moth flight season in 2012. Traps were deployed in vegetative lowbush blueberry fields located in Farmington (field experiment no. 1) and Debert (field experiment no. 2), Nova Scotia. Lowbush blueberries are typically produced on a biennial cycle. After harvest, plants are pruned and enter a year-long vegetative phase.
In both field experiments, traps were arranged in a randomized complete block design with ten replicates in the first experiment and six replicates in the second field experiment. Counts of male moths in traps were done twice per week. Trap data were log10 (x+1) transformed to satisfy assumptions of normality and equal variance and were analyzed by ANOVA using Proc Mixed (SAS, 2001). Where significant differences were detected, Fisher's least significant difference (LSD) was used for multiple mean comparisons among treatments.
The first experiment attempted to clarify: (1) whether enantiomers of the tested epoxide compound differed in the ability to attract male I. argillacearia moths; and (2) whether a mixture of the tested epoxide and triene compounds was more attractive to male moths than each constituent alone.
Rubber septa (Wheaton, N.J., USA) loaded with treatments were placed within Delta® traps (Contech, Delta, British Columbia) with sticky inserts to capture moths. Traps were placed approximately 20 m apart (Cantelo et al., 1982; Hillier, 2001; Hillier et al., 2002), and suspended from iron stakes just above the blueberry canopy. The experiment had seven treatments.
Virgin female moths were held in 25 ml plastic Solo™ cups (TRA Cash and Carry, Truro, NS, Canada) perforated with approximately 20 5-mm holes. Traps were in the field from 9-26 Jul. 2012 and were emptied or replaced twice per week during this period.

Itame brunneata = conditions: without (Z,Z,Z)-3,6,9-17:H in the mixture; cited from earlier work

Compound | captures of male moths in traps (in words) [1] | capture of moths (Itame brunneata)
CC/C=C\C/C=C\C/C=C\CCCCCCC [(Z,Z,Z)-3,6,9-17:H, Z,Z,Z-3,6,9-heptadecatriene] | Very few moths were recovered | 
CCCCCCC/C=C\C/C=C\C[C@@H]1O[C@@H]1CC (relative stereo) [3R,4S-epoxy-(Z,Z)-6,9-17:H, Z,Z-(3R,4S)-cis-3,4-epoxy-6,9-heptadecadiene] | a significant number of moths were found | captured
CCCCCCC/C=C\C/C=C\C[C@H]1O[C@H]1CC [3S,4R-epoxy-(Z,Z)-6,9-17:H, Z,Z-(3S,4R)-3,4-epoxy-6,9-heptadecadiene] | lack of captured moths | 
